Tests used:
eIF-2α phosphorylation = experiment: E−/B48 lipoprotein-induced eIF2α phosphorylation in MPMs; format: cell-based, mouse; conditions: addition to culture medium or transfection, data not shown
From the text: 3. ApoE-deficient lipoproteins induce eIF-2α phosphorylation. […] We also observed that addition of 2-AP to culture medium or transfection of a nonphosphorylatable eIF2α mutant to MPMs attenuated E^−/B48 lipoprotein-induced eIF2α phosphorylation (not shown).

[1] = tested on: mouse peritoneal macrophages; experiment: E−/B48 lipoprotein degradation and lipoprotein and cholesterol ester accumulation in MPMs; format: cell-based; conditions: addition to culture medium or transfection, data not shown
From the text: 4. Inhibition of eIF-2α phosphorylation increases macrophage lipoprotein degradation, and suppresses cholesterol ester and lipoprotein accumulation in macrophages. We observed that E^−/B48 lipoproteins induced a time-related accumulation of cholesterol ester and lipoproteins in MPMs, which is associated with a reduced degradation rate of E^−/B48 lipoproteins. The addition of 2-AP to culture medium or transfection of a nonphosphorylatable eIF-2α mutant to MPMs enhances E^−/B48 lipoprotein degradation, and reduces E^−/B48 lipoprotein and cholesterol ester accumulation (data not shown).

[2] = tested on: mouse peritoneal macrophages; experiment: E−/B48 lipoprotein-induced foam cell formation, confocal microscopy of DiI and LysoTracker staining; format: cell-based; conditions: MPMs, 20 μg/ml DiI-labeled E−/B48 lipoproteins plus 2 mM 2-AP, 48 hrs
Experimental: FIG. 2. Mouse peritoneal macrophages were treated with 20 μg/ml DiI-labeled E^−/B48 lipoproteins, 20 μg/ml E^−/B48 lipoproteins plus 2 mM 2-AP, or culture medium alone (control) for 48 hrs. The cells were then stained with LysoTracker, which is used to localize lysosomes. Confocal microscopy images were captured, and the merged images are an overlay of the differential interference contrast (DIC) images and the fluorescence images of intracellular DiI and LysoTracker staining. Co-localization of DiI and LysoTracker staining indicates lipoprotein accumulation in the lysosomes. 2. Inhibition of eIF-2α phosphorylation by 2-AP represses E^−/B48 lipoprotein-induced foam cell formation in vitro. We previously reported that incubation of mouse peritonea macrophages (MPMs) with E^−/B48 lipoproteins induces lipid droplet accumulation in the cytoplasm. In some cells, E^−/B48 lipoproteins caused the cytoplasm to be almost entirely accumulated lipids, giving these cells a foam cell like appearance^12. In the present study, we used a confocal microscopy to localize the accumulated lipids in MPMs and to assess the effect of 2-AP on this localization.

ApoE−/− mice = experiment: Atherosclerosis development in ApoE−/− mice with oral feeding of 2-AP; format: in vivo, mouse
Experimental: FIG. 1. ApoE^−/− mice at 5 weeks of age were treated with 200 mg/kg BW of 2-AP or equal volume of water as control via gavage feeding. This procedure was repeated once every other day for […]. A. Heart-aorta samples were collected from mice at 6 months of age (n=12 for each group of mice). Sequential 8-μm thick sections were cut from the mouse aortic root. The area (μm^2) of atherosclerotic lesions in the section was measured. B. Aortas from the aortic root to the iliac bifurcation were collected, and the area of atherosclerotic lesions and the total area of the aortic surface were measured, data are expressed as the percent of aortic surface area covered by atherosclerotic lesions. Data are expressed as the mean±SEM. *P<0.05 as compared to untreated control mice. 1. Inhibition of eIF-2α phosphorylation by 2-AP delays the development of atherosclerosis in ApoE^−/− mice: We find that oral feeding of 2-AP reduces the mean size of atherosclerotic lesions in the aorta root and the aorta tree by about 45% and 37%, respectively. […] These findings provide evidence that development of atherosclerosis in ApoE^−/− mice is associated with an increased eIF-2α phosphorylation and that inhibition of eIF-2α phosphorylation via in vivo treatment with 2-AP delays the development of atherosclerosis.

mRNA translation = experiment: E−/B48 lipoprotein-induced suppression of mRNA translation; format: cell-based; conditions: data not shown
From the text: 6. Inhibition of eIF-2α phosphorylation attenuates E^−/B48 lipoprotein-induced suppression on mRNA translation. We observed that E^−/B48 lipoproteins reduced lysosomal hydrolases, due mainly to suppressing the translation of mRNAs encoding these proteins, and that 2-AP attenuated the suppressive effect of E^−/B48 lipoproteins on mRNA translation (data not shown).

[3] = tested on: lysosomal hydrolases, including cathepsin B and lysosomal acid lipase; experiment: E−/B48 lipoprotein-induced suppression of lysosomal hydrolases in MPMs; format: cell-based, mouse; conditions: data not shown
From the text: 5. Inhibition of eIF-2α phosphorylation attenuates E^−/B48 lipoprotein-induced suppressive effect on lysosomal hydrolases. […] We also observed that 2-AP and the nonphosphorylatable eIF-2α mutant attenuated the suppressive effect of E^−/B48 lipoproteins on lysosomal hydrolases (data not shown). It is highly likely that E^−/B48 lipoprotein-induced eIF-2α phosphorylation down-regulates macrophage lysosomal hydrolases, which in turn reduces the degradation of the lipid and protein components of E^−/B48 lipoproteins, leading to lipoprotein accumulation in the lysosomes and triggering foam cell formation.

[4] = ApoE−/− mice, 200 mg/kg BW 2-AP by gavage once every other day for 24 weeks, vs untreated control
[5] = ApoE−/− mice, 200 mg/kg BW once every other day for 24 weeks, 6-hr fasting

- food intake (ApoE−/− mice; 2-AP treatment of ApoE−/− mice): did not alter
- suppressive effect of E−/B48 lipoproteins on lysosomal hydrolases [3]: attenuated
SMILES: Nc1ncc2[nH]cnc2n1 [2-AP, 7H-purin-2-amine]
- E−/B48 lipoprotein-induced eIF2α phosphorylation (eIF-2α phosphorylation): attenuated
- E−/B48 lipoprotein accumulation [1]: reduces
- E−/B48 lipoprotein degradation [1]: enhances
- cholesterol ester accumulation [1]: reduces
- level of staining with DiI (intralysosomal lipid accumulation) [2]: markedly reduced
- body weight (ApoE−/− mice; 2-AP treatment of ApoE−/− mice): did not alter
- advanced lesions (e.g., fibrous caps and acellular areas) (ApoE−/− mice; 2-AP-treated ApoE−/− mice): reduced markedly
- reduction of mean size of atherosclerotic lesions in the aorta root (ApoE−/− mice; [4]): about 45%
- reduction of mean size of atherosclerotic lesions in the aorta tree (ApoE−/− mice; [4]): ~37%
- plasma glucose levels (ApoE−/− mice; [5]): did not alter
- plasma insulin levels (ApoE−/− mice; [5]): did not alter
- plasma lipid levels (ApoE−/− mice; [5]): did not alter
- phosphorylated eIF-2α immunostaining in the atherosclerotic lesions (ApoE−/− mice; immunohistology, 2-AP-treated vs untreated ApoE−/− mice): significantly reduced
- suppressive effect of E−/B48 lipoproteins on mRNA translation (mRNA translation): attenuated
